Source: patent publication US20180193409A1, “PEPTIDYL TPOR ANTAGONISTS AND USES THEREOF” (POLYMERS CRC LIMITED, priority 2015, published 2018)
Bridge positions count the residues as written; N and C are the ends. Peptide text beside a SMILES is read from it. I, II: the chains in the order shown.

Key:
[1] = molecular target: T1, receptor for human TPO (c-Mpl) (Homo sapiens, UniProt P40238); assay: Antagonist assay: proliferation of FD-Mpl cells in media supplemented with rhTPO (ATP-luminescence); format: cell-based; conditions: murine FD-Mpl cells, 6 or 10 ng/mL rhTPO (LCP also 30 ng/mL), 24 hours; read-out: concentration at which the decrease in normalised cell proliferation occurred (estimated EC50, antagonist assay)
T1 construct: expressed in transfected cells; host or cells: FD-Mpl (murine, derived from FDCP-1)
T1 sequence (P40238 26-635): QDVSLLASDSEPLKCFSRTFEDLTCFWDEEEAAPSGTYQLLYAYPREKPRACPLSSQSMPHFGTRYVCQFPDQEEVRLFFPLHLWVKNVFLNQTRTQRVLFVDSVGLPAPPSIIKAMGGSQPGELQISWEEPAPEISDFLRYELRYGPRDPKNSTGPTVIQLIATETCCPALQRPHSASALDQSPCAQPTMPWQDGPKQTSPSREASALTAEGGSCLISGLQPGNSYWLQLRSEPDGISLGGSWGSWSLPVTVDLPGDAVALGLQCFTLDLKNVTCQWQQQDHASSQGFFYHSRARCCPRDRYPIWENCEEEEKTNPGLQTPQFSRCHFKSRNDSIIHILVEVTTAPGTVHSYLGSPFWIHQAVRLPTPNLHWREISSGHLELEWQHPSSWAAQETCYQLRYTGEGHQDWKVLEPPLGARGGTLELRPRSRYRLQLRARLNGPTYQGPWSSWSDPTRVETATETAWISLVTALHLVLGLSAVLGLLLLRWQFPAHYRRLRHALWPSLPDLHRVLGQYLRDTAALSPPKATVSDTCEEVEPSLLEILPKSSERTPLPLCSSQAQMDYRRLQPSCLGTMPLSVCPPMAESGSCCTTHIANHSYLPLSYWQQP
Protocol: Bioactivity testing was carried out as follows. All compounds were tested on a murine TPO-dependent cell line FD-Mpl. FD-Mpl cells are derived from the haemopoietic growth factor dependent cell line FDCP-1 and express the receptor for human TPO (c-Mpl)—(as per Winkler, D., Riches, A., Condie, G., Tarasova, A., Andrade, J., White, J., Cablewski, T., Werkmeister, J., Haylock, D. and Meagher, L., ACS Chemical Biology 2010, DOI: 10.1021/cb100100u). […] FD-Mpl cells were counted and resuspended in a mix of cell culture medium with added peptide of interest and incubated at 4° C. for 2 h (for the agonist assay this brief incubation at 4° C. for 2 h was omitted). […]
Cells were then incubated at 37° C. for 24 hours (or 48 hours in the case of the agonist assay) and cell proliferation was assessed as follows. Cells were plated in quadruplicate onto white luminescence detection plates and cell proliferation and viability were assessed by an ATP-luminescence detection assay (CellTiter Glo Luminescent Cell Viability Assay Kit, Promega). Cells were also plated in triplicate and cell morphology was assessed using phase contrast microscopy. […]

[2] = molecular target: T1, receptor for human TPO (c-Mpl); assay: Agonist assay: proliferation of FD-Mpl cells in the absence of rhTPO (ATP-luminescence); format: cell-based; conditions: no rhTPO
Protocol: Bioactivity testing was carried out as follows. All compounds were tested on a murine TPO-dependent cell line FD-Mpl. FD-Mpl cells are derived from the haemopoietic growth factor dependent cell line FDCP-1 and express the receptor for human TPO (c-Mpl)—(as per Winkler, D., Riches, A., Condie, G., Tarasova, A., Andrade, J., White, J., Cablewski, T., Werkmeister, J., Haylock, D. and Meagher, L., ACS Chemical Biology 2010, DOI: 10.1021/cb100100u). These cells are typically cultured in media supplemented with 10% foetal bovine serum and the cytokines interleukin-3, GM-CSF or TPO (as per Naparstek, E., Pierce, J., Metcalf, D., Shadduck, R., Ihle, J., Leder, A., Sakakeeny, M. A., Wagner, K., Falco, J., Fitzgerald, T. J. and Greenberger, J. S., Blood 1986, 67, 1395-1403). In the absence of either of these factors, FDCP-1 cells rapidly undergo apoptosis (usually within 24 hours). FD-Mpl cells were maintained in DMEM medium with 10% foetal calf serum (FCS) and supplemented with 30 ng/mL of recombinant human TPO (rhTPO, Apollo Cytokine Research). For the antagonist assay, FD-Mpl cells were harvested by centrifugation and the resulting cell pellet was thoroughly washed, twice, with 10 mL PBS to remove residual cytokine. The cells were then resuspended in 5 mL of cell culture medium without rhTPO and incubated at 37° C. for 1 h (or 2 h in the case of the agonist assay; Note: short term withdrawal of rhTPO enhances up-regulation of the TPO receptor, c-Mpl). FD-Mpl cells were counted and resuspended in a mix of cell culture medium with added peptide of interest and incubated at 4° C. for 2 h (for the agonist assay this brief incubation at 4° C. for 2 h was omitted). Following this incubation, cells were supplemented with low doses of TPO (either 6 or 10 ng/mL of rhTPO) and plated at 5000 cells/well/100 μL medium in a 96-well tissue culture plate. […]
Cells were then incubated at 37° C. for 24 hours (or 48 hours in the case of the agonist assay) and cell proliferation was assessed as follows. Cells were plated in quadruplicate onto white luminescence detection plates and cell proliferation and viability were assessed by an ATP-luminescence detection assay (CellTiter Glo Luminescent Cell Viability Assay Kit, Promega). Cells were also plated in triplicate and cell morphology was assessed using phase contrast microscopy.
For the antagonist assay, the cell numbers determined via the luminescence assay were normalised by the cell numbers obtained for FD-Mpl cells cultured in either 6 or 10 ng/mL of rhTPO without added peptide and plotted as a function of the peptide concentration (see FIGS. 1a and b). […] For the agonist assay used with the LCP-PD peptide, the cell numbers were normalised by the cell numbers obtained with media supplemented with 30 ng/mL rhTPO and expressed as a percentage. […]

| SMILES | EC50 [1] | agonist activity at the c-Mpl receptor (in words) ([2]; FD-Mpl cells) | efficacy with respect to cell proliferation (agonist assay) ([2]; FD-Mpl cells, normalised by cell numbers with 30 ng/mL rhTPO) | EC50 ([2]; murine FD-Mpl cells, 48 hours, read-out: concentration at which increased cell proliferation was observed (agonist assay)) |
| --- | --- | --- | --- | --- |
| CC(=O)N[C@@H](C)C(=O)N[C@H]1CSSC[C@@H](C(=O)N[C@@H](C)C(=O)O)NC(=O)[C@H](C)NC(=O)[C@H](C)NC(=O)[C@H](C)NC(=O)[C@H](CC(C)C)NC(=O)[C@H](Cc2c[nH]c3ccccc23)NC(=O)[C@H](CCC(N)=O)NC(=O)[C@H](CCCNC(=N)N)NC(=O)[C@H](CC(C)C)NC(=O)[C@H](C)NC(=O)[C@H](C)NC(=O)[C@H](C)NC1=O [Example 2, AcACAAALRQWLAAACA] (Ac-ACAAALRQWLAAACA-OH; disulfide 2-14) | 20 to 30 µM |  |  |  |
| CC[C@H](C)[C@@H]1NC(=O)[C@H](C)NC(=O)[C@@H](NC(=O)[C@H](C)NC(C)=O)CSSC[C@H](NC(=O)[C@H](C)NC(C)=O)C(=O)N[C@@H](C)C(=O)N[C@@H]([C@@H](C)CC)C(=O)N[C@@H](CCC(=O)O)C(=O)NCC(=O)N2CCC[C@H]2C(=O)N[C@@H]([C@@H](C)O)C(=O)N[C@@H](CC(C)C)C(=O)N[C@@H](CCCNC(=N)N)C(=O)N[C@@H](CCC(N)=O)C(=O)N[C@@H](Cc2c[nH]c3ccccc23)C(=O)N[C@@H](CC(C)C)C(=O)N[C@@H](C)C(=O)N[C@@H](C)C(=O)N[C@@H](CCCNC(=N)N)C(=O)N[C@@H](C)C(=O)N[C@@H](C)C(=O)N[C@H](C(=O)N[C@@H](C)C(=O)O)CSSC[C@@H](C(=O)N[C@@H](C)C(=O)O)NC(=O)[C@H](C)NC(=O)[C@H](C)NC(=O)[C@H](CCCNC(=N)N)NC(=O)[C@H](C)NC(=O)[C@H](C)NC(=O)[C@H](CC(C)C)NC(=O)[C@H](Cc2c[nH]c3ccccc23)NC(=O)[C@H](CCC(N)=O)NC(=O)[C@H](CCCNC(=N)N)NC(=O)[C@H](CC(C)C)NC(=O)[C@H]([C@@H](C)O)NC(=O)[C@@H]2CCCN2C(=O)CNC(=O)[C@H](CCC(=O)O)NC1=O [LCP-PD] (I: Ac-ACAIEGPTLRQWLAARAACA-OH / II: Ac-ACAIEGPTLRQWLAARAACA-OH; disulfide I:2-II:2, I:19-II:19; C-terminus assumed) |  | potent agonist |  |  |
| CC[C@H](C)[C@@H]1NC(=O)[C@H](C)NC(=O)[C@@H](NC(=O)[C@H](C)NC(C)=O)CSSC[C@@H](C(=O)N[C@@H](C)C(=O)O)NC(=O)[C@H](C)NC(=O)[C@H](C)NC(=O)[C@H](CCCNC(=N)N)NC(=O)[C@H](C)NC(=O)[C@H](C)NC(=O)[C@H](CC(C)C)NC(=O)[C@H](Cc2c[nH]c3ccccc23)NC(=O)[C@H](CCC(N)=O)NC(=O)[C@H](CCCNC(=N)N)NC(=O)[C@H](CC(C)C)NC(=O)[C@H]([C@@H](C)O)NC(=O)[C@@H]2CCCN2C(=O)CNC(=O)[C@H](CCC(=O)O)NC1=O [LCP] (Ac-ACAIEGPTLRQWLAARAACA-OH; disulfide 2-19; C-terminus assumed) | ~3 µM |  | 40% | ~0.06 µM |
| CC(=O)N[C@@H](C)C(=O)N[C@H]1CSSC[C@H](NC(=O)[C@H](C)NC(C)=O)C(=O)N[C@@H](C)C(=O)N[C@@H](C)C(=O)N[C@@H](C)C(=O)N[C@@H](CC(C)C)C(=O)N[C@@H](CCCNC(=N)N)C(=O)N[C@@H](CCC(N)=O)C(=O)N[C@@H](Cc2c[nH]c3ccccc23)C(=O)N[C@@H](CC(C)C)C(=O)N[C@@H](C)C(=O)N[C@@H](C)C(=O)N[C@@H](C)C(=O)N[C@H](C(=O)N[C@@H](C)C(=O)O)CSSC[C@@H](C(=O)N[C@@H](C)C(=O)O)NC(=O)[C@H](C)NC(=O)[C@H](C)NC(=O)[C@H](C)NC(=O)[C@H](CC(C)C)NC(=O)[C@H](Cc2c[nH]c3ccccc23)NC(=O)[C@H](CCC(N)=O)NC(=O)[C@H](CCCNC(=N)N)NC(=O)[C@H](CC(C)C)NC(=O)[C@H](C)NC(=O)[C@H](C)NC(=O)[C@H](C)NC1=O [MCP-PD] (I: Ac-ACAAALRQWLAAACA-OH / II: Ac-ACAAALRQWLAAACA-OH; disulfide I:2-II:2, I:14-II:14; C-terminus assumed) |  | reasonably potent agonist |  |  |
